Where a name gives a salt, the structure may show the parent alone. Read-outs that look alike come from different tables or passages of the source.
Columns and labels:
CYP2D6 = CYP2D6 (Homo sapiens (Human), UniProt P10635); test: Inhibition of cytochrome P450 isoenzymes, CYP2D6; format: in vitro ADME
Description: (§1) 4.1 Experimental Purpose: To test the inhibitory effects of the compounds of the present disclosure on different isoforms of human cytochrome P450 isoenzymes
(§2) 1) The activities of CYP1A2, 2C9, 2C19, 2D6, and 3A4 were measured using a standard substrate method. In each reaction, the enzyme activities were measured in the presence and absence of the substance to be tested, wherein a single sample was measured at a total of eight test concentrations. A 5-in-1 mixed inhibitor was used.
(§3) 2) An incubation matrix comprising microsomes, a substrate, and an inhibitor or the compound to be tested was pre-incubated at 37° C. for 5 minutes, and then NADPH was added to start the reaction.
(§4) 3) After the incubation, acetonitrile with an internal standard was added to stop the reaction.
(§5) 4) Metabolites generated by the substrates were measured by using the LC-MS/MS method, and the peak area ratio of each metabolite to the internal standard was evaluated and the inhibition rate and IC50 were calculated.

[1] = target: T1, human μ-subtype opioid receptor (hMOR) (Homo sapiens (Human), UniProt P35372); test: MOR β-arrestin-2 agonist activity test; format: cell-based; conditions: for Emax: maximum effect of enkephalin DAMGO was 100%, about 0% = no actual agonist activity
Description: Test 2: β-Arrestin-2 Agonist Activity Test
2.1 Experimental Purpose: To test the β-arrestin-2 agonist activity of the compounds of the present disclosure on the human μ-subtype opioid receptor (hMOR).
a. All samples were dissolved in DMSO to a storage concentration of 10 mM.
(§6) b. A series of diluted samples were formulated on a 384-well LDV plate. A total of 11 concentration points were obtained by 3.162-fold gradient dilution.
c. The series of diluted samples were transferred to an experimental plate by using an Echo machine, wherein 60 nL of the compound was transferred corresponding to each well.
d. 60 nL of 3.33 mM DAMGO (as HPE) and 60 nL of DMSO (as ZPE) were transferred to the corresponding positions on the experimental plate by using the Echo machine.
The experiment was performed using PathHunter Detection Kit from DiscoveRX Cooperation (DiscoveRX #93-0213C3)
a. Assay buffer and PathHunter detection reagent required for the experiment were formulated.
Assay Buffer: 1×DPBS buffer
PathHunter Detection Reagent: The kit was provided therein with three constituents.
c. The experimental plate was centrifuged at 300 rpm for 30 s and incubated at room temperature for 2 hours.
d. 6 μL of the PathHunter detection reagent was added to each well of the experimental plate.
e. The experimental plate was centrifuged at 300 rpm for 30 seconds, then left at room temperature for 60 minutes, and then read on the Envision.

CYP2C19 = CYP2C19 (Homo sapiens (Human), UniProt P33261); test: Inhibition of cytochrome P450 isoenzymes, CYP2C19; format: in vitro ADME; conditions: >50 μM: inhibitory effect less than 50% at 50 μM; read-out: CYP 2C19 IC50
Sequence of CYP2C19 (P33261 whole entry): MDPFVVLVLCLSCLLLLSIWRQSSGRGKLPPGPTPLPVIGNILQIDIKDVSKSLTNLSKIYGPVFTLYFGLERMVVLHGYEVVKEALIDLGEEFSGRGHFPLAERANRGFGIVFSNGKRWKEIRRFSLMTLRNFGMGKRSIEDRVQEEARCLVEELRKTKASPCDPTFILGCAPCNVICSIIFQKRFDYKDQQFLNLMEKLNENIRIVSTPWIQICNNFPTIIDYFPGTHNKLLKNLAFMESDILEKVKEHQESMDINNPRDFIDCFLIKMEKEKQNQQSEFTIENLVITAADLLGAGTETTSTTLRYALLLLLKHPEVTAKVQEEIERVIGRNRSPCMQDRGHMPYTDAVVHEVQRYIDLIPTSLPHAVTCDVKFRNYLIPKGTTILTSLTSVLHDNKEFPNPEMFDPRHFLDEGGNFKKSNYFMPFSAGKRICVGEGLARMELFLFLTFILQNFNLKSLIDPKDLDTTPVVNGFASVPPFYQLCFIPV
Description: as §1, §2, §3, §4, §5

CYP2C9 = CYP2C9 (Homo sapiens (Human), UniProt P11712); test: Inhibition of cytochrome P450 isoenzymes, CYP2C9; format: in vitro ADME; conditions: >50 μM: inhibitory effect less than 50% at 50 μM; read-out: CYP 2C9 IC50
Sequence of CYP2C9 (P11712 whole entry): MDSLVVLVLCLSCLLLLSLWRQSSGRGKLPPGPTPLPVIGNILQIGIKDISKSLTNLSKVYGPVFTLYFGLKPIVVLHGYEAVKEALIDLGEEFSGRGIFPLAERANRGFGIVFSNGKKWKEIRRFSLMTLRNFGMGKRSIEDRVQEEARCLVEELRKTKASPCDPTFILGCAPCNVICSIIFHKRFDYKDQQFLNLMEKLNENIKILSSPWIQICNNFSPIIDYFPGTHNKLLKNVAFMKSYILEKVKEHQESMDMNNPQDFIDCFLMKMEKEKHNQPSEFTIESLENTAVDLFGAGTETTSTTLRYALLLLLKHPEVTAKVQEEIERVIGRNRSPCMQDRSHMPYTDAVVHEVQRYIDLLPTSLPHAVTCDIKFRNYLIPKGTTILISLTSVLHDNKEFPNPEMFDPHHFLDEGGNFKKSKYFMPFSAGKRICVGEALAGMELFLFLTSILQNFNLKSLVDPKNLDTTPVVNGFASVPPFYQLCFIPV
Description: as §1, §2, §3, §4, §5

[2] = target: T1, human μ-subtype opioid receptor (hMOR); test: MOR cAMP agonist activity test; format: cell-based; conditions: for Emax: maximum effect of enkephalin DAMGO was 100%
Description: Test 1: MOR cAMP Agonist Activity Test
1.1 Experimental Purpose: To test the cAMP agonist activity of the compounds of the present disclosure on the human μ-subtype opioid receptor (hMOR).
a. Compound samples were dissolved in DMSO to a storage concentration of 10 mM.
as §6
c. The series of diluted samples were transferred to an experimental plate (Corning-3824) by using an Echo machine, wherein 30 nL was transferred corresponding to each well.
The experiment was performed using a cAMP detection kit from Cisbio (Cisbio #62AM4PEJ).
a. Assay buffer and stimulation buffer (STB) required for the experiment were formulated.
Stimulation Buffer: formulated with the assay buffer, containing 5 μM NKH477 (CAS: 138605-00-2) and 200 μM IBMX (3-isobutyl-1-methylxanthine)
b. […] The number of cells in the well was 10,000 cells/well.
c. The experimental plate was placed in a 37° C. constant-temperature incubator for incubation. The incubation was performed for 40 minutes.
d. A cAMP standard concentration curve was prepared. The first concentration point was at 2848 nM, and a total of sixteen detection concentrations were obtained by 4-fold gradient dilution. There were three replicates for each concentration point.
e. The cAMP detection kit from Cisbio was provided therein with a d2-labeled cAMP reagent (d2 reagent) and an Eu-labeled cAMP antibody reagent (Crypate reagent). The above two reagents were formulated according to the kit instructions, and then added to the sample experimental plate and to the cAMP standard concentration experimental plate, respectively. It was necessary to add 5 μL of the d2 reagent and then 5 μL of the Cryptate reagent to each well.
f. After the experimental plates were left at room temperature for 60 minutes, the experimental plates were read on the Envision.

[3] = Pharmacokinetics of the compounds in rats; format: in vivo, rat; conditions: for Apparent Clearance Cl: male SD rats, single IV, mg/Kg: Comparative Compound 1 1.80, (+)-5 2.40, (+)-16 1.76, HCl salt of (+)-23 1.71; for Kp at […] / Vd / AUC(0-inf) / half-life / C0: male, SD, rat, iv; for Kp at […]: brain/plasma, read-out: Brain/Plasm Ratio B/P ratio; for Vd / AUC(0-inf) / half-life / C0: plasma; for Vd: read-out: Apparent Distribution Volume Vd; for AUC(0-inf): read-out: Area under the Curve AUC0-inf; for half-life: read-out: Hal-life T1/2 (converted); for C0: read-out: Initial Concentration C0
Description: 6.1 Experimental Purpose: To measure, using a LC/MS/MS method, the medicament concentrations of the compound in plasma and specific tissues at different time points after the compound was administered by a single intravenous injection (IV) to 7-9-week-old male SD rats used as test animals, to study on the pharmacokinetic behavior of the compound of the present disclosure in rats, and to evaluate the pharmacokinetic characteristics thereof. 6.2 Compound Formulation
Each of them was formulated at a concentration of 1 mg/mL and was used for IV (intravenous injection) administration.
The actual weights of the rats were weighed on the day of administration and volumes to be administered were calculated. The above formulated solutions to be administered were administered by injection into caudal veins of rats.
About 0.2 mL of whole blood samples were collected by means of jugular vein puncture at the time set in the experimental protocol, and the actual blood collection time was recorded in the experimental records. All the blood samples were added to labeled plastic centrifuge tubes to which K2-EDTA anticoagulant was added in advance. After the blood samples were collected, they were centrifuged at 3,000 g for 10 minutes at 4° C. to prepare the supernatant plasma, and the plasma was stored at −20° C. or a lower temperature for LC-MS/MS analysis.
The concentrations of the compounds in rat plasma were measured by using high-performance liquid chromatography-tandem mass spectrometry (LC-MS/MS). The retention durations of the compounds and internal standard, chromatogram acquisition, and integration of chromatograms were processed using the software Analyst (Applied Biosystems), and data statistics were processed using the software Watson LIMS (Thermo Fisher Scientific) or Analyst (Applied Biosystems). The plasma concentration was processed using a non-compartmental model of WinNonlin™ Version 6.3 (Pharsight, Mountain View, Calif.) which was a pharmacokinetic software, and the pharmacokinetic parameters were calculated using a linear logarithmic trapezoidal method.

[4] = >30000 nM = greater than the highest detection concentration, read-out: MOR β-arrestin-2 EC50

Sequence of CYP2D6 (P10635 whole entry, canonical isoform): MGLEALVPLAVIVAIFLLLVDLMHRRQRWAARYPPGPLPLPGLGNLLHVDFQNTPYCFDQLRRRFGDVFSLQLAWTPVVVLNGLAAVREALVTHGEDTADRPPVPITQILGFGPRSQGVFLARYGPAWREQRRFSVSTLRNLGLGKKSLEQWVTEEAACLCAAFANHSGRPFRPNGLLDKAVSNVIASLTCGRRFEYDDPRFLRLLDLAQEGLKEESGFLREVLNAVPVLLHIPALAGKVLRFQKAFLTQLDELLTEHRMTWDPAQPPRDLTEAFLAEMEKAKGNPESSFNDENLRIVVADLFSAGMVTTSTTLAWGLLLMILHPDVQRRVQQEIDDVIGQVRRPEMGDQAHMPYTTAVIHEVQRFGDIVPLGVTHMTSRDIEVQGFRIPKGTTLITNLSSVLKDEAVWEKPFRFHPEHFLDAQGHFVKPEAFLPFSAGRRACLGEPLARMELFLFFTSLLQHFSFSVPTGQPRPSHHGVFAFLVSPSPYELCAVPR

| SMILES | IC50 (CYP2D6; read-out: CYP 2D6 IC50) | EC50 [1, 4] | Emax [1] | IC50 (CYP2C19) | IC50 (CYP2C9) | Emax [2] | Apparent Clearance Cl [3] | Kp at […] [3] | Vd [3] | AUC(0-inf) [3] | half-life [3] | C0 [3] | EC50 [2] | IC50 (CYP2D6) | EC50 [1] |
| --- | --- | --- | --- | --- | --- | --- | --- | --- | --- | --- | --- | --- | --- | --- | --- |
| c1ccc([C@]2(CCNCc3scc4c3CCC4)CCO[C@]3(CCOC3)C2)nc1 [(+)-2] | 46.4 µM | > 30 µM | ~0% | > 50 µM | > 50 µM | 96% |  |  |  |  |  |  |  |  |  |
| Fc1ccc([C@]2(CCNCc3cccc(Cl)c3)CCO[C@]3(CCOC3)C2)nc1 [(+)-16] | 12.7 µM | > 30 µM | ~0% | 33.7 µM | > 50 µM | 91.7% | 6.84 L/h/kg | 4.61 | 6.3 L/kg | 723 nM·h | 54 min | 0.979 µM | 0.0005 µM |  |  |
| Cc1cccc(CNCC[C@@]2(c3ccc(F)cn3)CCO[C@]3(CCOC3)C2)c1 [Hydrochloride Salt of (+)-22] |  |  | ~0% | > 50 µM | > 50 µM | 93.3% |  |  |  |  |  |  |  | 19.3 µM | > 30 µM |
| Fc1ccc([C@]2(CCNCc3cccc(F)c3)CCO[C@]3(CCOC3)C2)nc1 [Hydrochloride Salt of (+)-23] | 17.8 µM | > 30 µM | ~0% | > 50 µM | > 50 µM | 84.5% | 6.78 L/h/kg | 2.2 | 5 L/kg | 763 nM·h | 42 min | 1.55 µM | 0.001 µM |  |  |
| COc1ccsc1CNCC[C@@]1(c2ccccn2)CCOC2(CCCC2)C1 [compound 1, Oliceridine, reference compound] |  |  | 4.5% | > 50 µM | > 50 µM | 82.7% | 4.46 L/h/kg |  | 4.3 L/kg | 1150 nM·h | 48 min | 1.9 µM |  | 4.6 µM |  |

Source: patent publication US11124523B2, “2,6-dioxaspiro [4,5] decane derivatives and preparation method therefor and pharmaceutical applications thereof” (SHANDONG LUYE PHARMACEUTICAL CO., LTD., priority 2017, dated 2021)
